{
  "source": "patent US10391166B2",
  "about": "“Short oligonucleotides as vaccine adjuvants and therapeutic agents” (priority 2013, dated 2019)",
  "key": {"[1]": {"method": "The objectives of this study were to determine potential toxic effects of SB 44 following daily oral dose administration for 14 days, and to evaluate the genotoxicity of SB 44 as determined by micronucleus evaluation. Male and female Sprague-Dawley rats were administered SB 44 daily at doses of 50, 200 and 500 mg/kg/day for 14 consecutive days. […] Micronucleus evaluations were performed to determine the potential genotoxicity of SB 44. Necropsies were performed on Day 15 for rats in the main study group and on Day 28 for rats in the recovery group."}, "[2]": {"system": "C57Bl/6 mouse bone marrow derived macrophages", "type": "cell-based"}, "RIG-I and NOD2 [3]": {"system": "RIG-I and NOD2", "type": "cell-based", "details": "receptor-deficient cells, exogenous RIG-I and NOD2"}, "[4]": {"system": "MDBK, Vero, and HFF cell lines", "experiment": "in vitro", "details": "cell line not specified (table footnote)", "method": "(§1) SB 44 was subjected to cytotoxicity evaluation against a panel of cell lines including Madin-Darby bovine kidney (MDBK), Vero, and HFF (human foreskin fibroblasts) to determine their CC50. Standard Microculture Tetrazolium Assay (MTT) assays were performed in 96-well plates using MDBK, Vero, and HFF cell lines (obtained from American Type Cell Collection). Controls included the nucleoside analogs 3TC, AZT, and ddC, as well as media without drugs. SDS was used as a positive cytotoxic control. All prodrugs were tested in triplicate at concentrations of 100, 300, and 1000 μM. Following a 24-hour incubation of cells with the test substance, the MTT assay was carried out.\n(§2) Standard MTT assays were performed in 96-well plates using the Promega CellTiter96 Non-radioactive Cell Proliferation Assay Kit in conjunction with a 96-well Plate Reader (ThermoMax, Molecular devices), and MDBK, Vero, and HFF cell lines (obtained from ATCC). Several controls were employed including the nucleoside analogs 3TC, AZT, and ddC, as well as, media without drugs. SDS was used as a positive cytotoxic control. The compounds were tested in triplicate at concentrations of 100, 300, and 1000 μM. Following a 24-hour incubation of cells with the test substance, the MTT assay was carried out."}, "PBMCs": {"system": "PBMCs", "type": "cell-based"}, "MHC-II": {"system": "MHC-II", "type": "cell-based, mouse"}, "M. tuberculosis [5]": {"system": "M. tuberculosis", "parameters": "species or system C57Bl/6 mice", "details": "mouse, in vivo"}, "[6]": {"system": "peripheral blood mononuclear cells (PBMCs)", "experiment": "Multiplex assay for 28 cytokines in PBMCs", "type": "cell-based, human", "details": "up to 50 μM"}, "[7]": {"details": "human liver S9 fractions", "method": "SB 44 (10 μM) was incubated with a mix containing S9 fraction (pooled from human) (1 mg/ml), NADPH (1.3 mM) UDPGA (5 mM), Alamethicin (10 μg/ml) in 1 ml of 1×PBS buffer. S-(5′-adenosyl)-L-methionine iodide (0.1 mM), adenosine 3′-phosphate 5′-phosphosulfate lithium salt hydrate (0.1 mM) and acetyl CoA (1 mM). The metabolite samples were evaluated by HPLC and LC/MS analysis."}, "[8]": {"system": "IRF3-luciferase reporter gene", "experiment": "IRF3-luciferase reporter induction in HLE A549 cells (primary assay for NOD2 activation)", "type": "cell-based, human", "details": "12 h incubation", "method": "The evaluation of SMNH compounds for NOD2 activation was conducted by primary, secondary, and tertiary assays. In the primary assays, SMNH compounds were tested for the induction of IRF3 expression in HLE A549 cells, which are known to endogenously express NOD2. […] SB 44, a mixture of two isomers Rp and Sp, is a prodrug of SB 40. SB 1B—the Rp isomer of SB 44 and is shown as SB 44-1 in the FIGS. 1-2.\nIRF3-luciferase transfected cells were incubated with either DMSO only (UT) or SMNH compounds (μM). Following 12 h incubation, luciferase activity was measured using Dual-Luciferase Reporter Assay System (Promega) according to the manufacturer's protocol. Transfection efficiency was normalized by measuring the expression of renilla Luciferase. Luciferase units (i.e., fold induction) were measured by standard methodology (mean±standard deviation; 3 independent experiments). The results are depicted in FIG. 1."}, "NOD2": {"target": "T1, NOD2 (Homo sapiens, UniProt Q9HC29)", "T1 construct": "expressed in transfected cells; host or cells: HEK 293", "T1 sequence (Q9HC29 whole entry, species assumed)": "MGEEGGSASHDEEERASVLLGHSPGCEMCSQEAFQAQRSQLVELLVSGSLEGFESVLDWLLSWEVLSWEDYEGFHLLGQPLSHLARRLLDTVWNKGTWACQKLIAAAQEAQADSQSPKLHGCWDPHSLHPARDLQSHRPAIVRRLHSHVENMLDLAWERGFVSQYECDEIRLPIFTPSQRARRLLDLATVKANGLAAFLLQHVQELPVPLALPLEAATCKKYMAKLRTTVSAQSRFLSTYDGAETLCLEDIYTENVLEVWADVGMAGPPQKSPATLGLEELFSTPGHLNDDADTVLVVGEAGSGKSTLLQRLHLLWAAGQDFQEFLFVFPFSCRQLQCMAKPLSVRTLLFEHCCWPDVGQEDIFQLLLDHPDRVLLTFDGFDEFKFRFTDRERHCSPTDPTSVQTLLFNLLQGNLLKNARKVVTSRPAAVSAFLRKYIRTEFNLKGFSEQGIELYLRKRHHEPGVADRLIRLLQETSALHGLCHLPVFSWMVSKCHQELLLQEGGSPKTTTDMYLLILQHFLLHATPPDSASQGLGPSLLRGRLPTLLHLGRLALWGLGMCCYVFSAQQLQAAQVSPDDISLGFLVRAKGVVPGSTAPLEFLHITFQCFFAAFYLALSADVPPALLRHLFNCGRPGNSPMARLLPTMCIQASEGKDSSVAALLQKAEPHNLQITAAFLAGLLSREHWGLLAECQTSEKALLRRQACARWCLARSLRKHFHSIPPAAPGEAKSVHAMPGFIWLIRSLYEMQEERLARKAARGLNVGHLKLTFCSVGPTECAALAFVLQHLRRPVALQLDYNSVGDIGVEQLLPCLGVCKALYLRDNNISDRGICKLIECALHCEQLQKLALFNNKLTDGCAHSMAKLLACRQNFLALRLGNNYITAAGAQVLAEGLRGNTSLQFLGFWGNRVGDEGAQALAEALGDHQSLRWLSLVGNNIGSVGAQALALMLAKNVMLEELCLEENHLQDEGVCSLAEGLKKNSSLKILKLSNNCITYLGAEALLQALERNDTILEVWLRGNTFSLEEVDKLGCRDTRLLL", "experiment": "IRF3-luciferase assay in HEK 293 cells transfected with NOD2", "type": "cell-based", "details": "HEK 293 transfected with NOD2, pcDNA and IRF3-luciferase; 1 μM; 12 h", "method": "HEK 293 cells were transfected with NOD2, pcDNA and IRF3-luciferase. The cells were then incubated with ssRNA (0.5 mg/ml) or SMNH compounds (1 μM). Following 12 h incubation, Luciferase activity was measured as described previously. The luciferase assay results are presented as mean±S.D. from three independent experiments (detailed materials and methods employed in these assays, see: ref (28). The results are depicted in FIG. 2."}, "in vitro": {"experiment": "in vitro", "details": "bovine (MDBK), African green monkey (Vero), human (HFF)", "method": "as §1, §2"}, "interferon-β (IFN-β)": {"system": "interferon-β (IFN-β)", "experiment": "IFN-β production from human lung epithelial A549 cells", "type": "cell-based"}, "IL-1β": {"system": "IL-1β", "experiment": "Mature IL-1β ELISA in mouse bone marrow derived primary macrophages", "type": "cell-based", "details": "alone or with MDP or BCG, caspase blockade with ZVAD-fmk", "method": "C57Bl/6 mouse bone marrow derived primary macrophages were treated with SB 1A or SB 1B alone, MDP alone or in combination as indicated for 4 hrs. BCG was used for infection for 4 hrs and supernatants collected 18 hr later titrated for mature IL1β using ELISA. Macrophages were first treated with ZVAD-fmk (2 hrs) for caspase blockade followed by activation with SB 1A and SB 1B (4 hrs) and BCG infection (4 hrs). Cytokine was measured 18 hrs later."}, "M. tuberculosis [9]": {"system": "M. tuberculosis", "parameters": "species or system C57Bl/6 mice", "details": "mouse, in vivo", "remark": "listed apart in the source"}, "RIG-I and NOD2 [10]": {"system": "RIG-I and NOD2", "experiment": "Induction of responder genes RIG-I and NOD2", "type": "cell-based"}},
  "note": "“Also recorded” adds a separate entry of the source.",
  "data": [
    {"smiles": "COC1C(OP(=O)(S)OCC2OC(n3cnc4c(N)ncnc43)CC2O)C(CO)OC1n1ccc(=O)[nH]c1=O", "note": "(mixture of isomers) [SB 40]", "values": [
      {"measurement": "systemic exposure females versus males, largest difference", "setting": "[1]; Day 14, 500 mg/kg dose groups", "value": "about twofold"},
      {"measurement": "Day 14 Cmax and AUClast values versus Day 1", "setting": "[1]; SB 40 in plasma, each dose of SB 44", "value": "higher than those on Day 1"},
      {"measurement": "dose relationship for Cmax and AUClast", "setting": "[1]; SB 40 in plasma, male and female rats, Days 1 and 14", "value": "nonlinear dose relationship"},
      {"measurement": "antigen presentation (Antigen-85B) in macrophages", "setting": "[2]", "value": "enhance antigen presentation in vitro"},
      {"measurement": "enhancement of ISG-56 expression over that induced by PolyI-PolyC", "setting": "RIG-I and NOD2 [3]", "value": 2, "unit": "fold"},
      {"measurement": "CC50", "setting": "[4]", "value": "> 1000", "unit": "µM"},
      {"measurement": "IFN production in the presence of BCG", "setting": "PBMCs", "value": "modest augmentation of IFN production"},
      {"measurement": "surface expression of MHC-II", "setting": "MHC-II", "value": "increase MHC-II in MΦs"},
      {"measurement": "anti-TB T cell function of mice", "setting": "M. tuberculosis [5]", "value": "dramatic increase in anti-TB T cell function of mice"},
      {"measurement": "cytokine induction in human PBMC cultures", "setting": "[6]", "value": "did not cause cytokine induction"},
      {"measurement": "phase II conjugative reactions", "setting": "[7]", "value": "no apparent evidence of any phase II conjugative reactions"},
      {"measurement": "IRF3 activation (IRF3-luciferase)", "setting": "[8]", "value": "induced IRF3 activation"},
      {"measurement": "IRF3 activation mediated via NOD2", "setting": "NOD2", "value": "mediated via NOD2 activation"}
    ]},
    {"smiles": "COC1[C@@H](OP(=O)(OC[C@H]2O[C@@H](n3cnc4c(N)ncnc43)C[C@H]2O)SCOC(=O)OC(C)C)[C@@H](CO)O[C@H]1n1ccc(=O)[nH]c1=O", "note": "(stereo partly drawn) [Compound 3]", "values": [
      {"measurement": "CC50 at 24 h", "setting": "in vitro", "value": "> 1000", "unit": "µM"}
    ]},
    {"smiles": "COC1C(OP(=O)(OCC2OC(n3cnc4c(N)ncnc43)CC2O)SCOC(=O)OC(C)C)C(CO)OC1n1ccc(=O)[nH]c1=O", "note": "(stereo not drawn) [SB 1B]", "values": [
      {"measurement": "production of IFN-β", "setting": "interferon-β (IFN-β)", "value": "results in production of IFN-β"},
      {"measurement": "antigen presentation (Antigen-85B) in macrophages", "setting": "[2]", "value": "enhance antigen presentation in vitro; also recorded: retain full activity"},
      {"measurement": "induction of mature IL-1β", "setting": "IL-1β", "value": "induce IL-1β only in combination with either MDP or intact BCG bacilli"},
      {"measurement": "antigen specific CD8 / memory T cells in lungs of re-challenged mice", "setting": "M. tuberculosis [9]", "value": "boost the magnitude of antigen specific memory T cells; also recorded: induces a robust expansion of antigen specific CD8 T cells"},
      {"measurement": "protection against re-challenge of tuberculosis", "setting": "M. tuberculosis [9]", "value": "protects twice as better than BCG; also recorded: induce protection against re-challenge of tuberculosis in mice"},
      {"measurement": "recall response against re-challenge with tuberculosis", "setting": "M. tuberculosis [9]", "value": "retain the ability to mount a better recall response"},
      {"measurement": "induction of responder genes RIG-I and NOD2", "setting": "RIG-I and NOD2 [10]", "value": "induction of responder genes RIG-I and NOD2"},
      {"measurement": "surface expression of MHC-II", "setting": "MHC-II", "value": "increase MHC-II in MΦs"},
      {"measurement": "Mtb counts of lungs", "setting": "M. tuberculosis [5]", "value": "reducing Mtb counts of lungs better than either BCG or MDP+BCG"},
      {"measurement": "Mtb counts of spleens", "setting": "M. tuberculosis [5]", "value": "better than BCG vaccine in reducing Mtb counts of spleens"},
      {"measurement": "adjuvant efficacy with BCG vaccine against tuberculosis", "setting": "M. tuberculosis [5]", "value": "more efficacious as an adjuvant than SB 44; also recorded: better than muramyl dipeptide (MDP) as adjuvants"},
      {"measurement": "anti-TB T cell function of mice", "setting": "M. tuberculosis [5]", "value": "dramatic increase in anti-TB T cell function of mice"},
      {"measurement": "numbers of multi-functional T cells", "setting": "M. tuberculosis [5]", "value": "enhances the numbers of multi-functional T cells compared to BCG vaccine"},
      {"measurement": "tetramer specific CD8 T cells", "setting": "M. tuberculosis [5]", "value": "comparable levels of tetramer specific CD8 T cells"},
      {"measurement": "IRF3 activation (IRF3-luciferase)", "setting": "[8]", "value": "induced IRF3 activation"},
      {"measurement": "IRF3 activation mediated via NOD2", "setting": "NOD2", "value": "mediated via NOD2 activation"}
    ]}
  ]
}
